This is an account of results in article PMC6114901, “An automated screening method for detecting compounds with goitrogenic activity using transgenic zebrafish embryos” (PLoS ONE, 2018).

Entries after “also recorded” stand apart in the source; their conditions may differ.

For data set [1], the system named is thyroglobulin (tg:mCherry reporter gene). Description: animal or person. The method, then: In order to avoid interference of test chemicals with early thyroid gland development, zebrafish embryos were cultured in exposure medium until 48 hours post fertilization (hpf). Subsequently, they were exposed to seven known thyroid endocrine disrupters for 3 days (48 to 120 hpf). The non-goitrogenic compound 3,4-dichloroaniline, that is used as reference compound in the zebrafish acute embryo toxicity test was used as negative control. […] No solvents were used. […] Five concentrations and one control were tested per compound and replicate. In the second replicate the range of concentration was adjusted to improve fitting of concentration-response curves. […] Given the lack of appropriate spectral properties stability of exposure concentrations was not analysed for potassium perchlorate. Embryos were kept in the incubator at 26°C and a 14:10 hours light:dark cycle. The exposure was conducted in crystallisation dishes covered with watchmaker glasses with 30 embryos in 30 ml exposure medium (for exposure medium refer to [26]).
Embryos were positioned ventrally toward the microscope objective. Per embryo a bright field image, an autofocus fluorescence image and a Z-stack of 9 images were obtained. The Z-stack was required in case of autofocus failure and manual selection of the focal plane. Fluorescence images were obtained with 400 ms of fluorescent light exposure at maximal light intensity and a gain of 1. […] However, care was taken, that at least 10 images per concentration and replicates were assessed. To avoid a time bias during the analysis the sequence of wells for analysis was arranged in order to obtain a uniform distribution over the entire period of analysis.
The images were analysed using a KNIME workflow (Version 3.3.3., [29]) with the extension “KNIME image processing”. In brief, images were loaded into the workflow and the background was removed automatically using the “rolling ball” procedure of the image J plugin (rolling ball size set to 50 pixels). Subsequently the area containing the thyroid gland was manually selected by drawing a rectangle around the appropriate region using the interactive annotation node. […] If possible the autofocus images were used. In case that the thyroid gland was out of focus due to the presence of autofluorescing pigment cells, an appropriate image from the Z-stack was selected. All subsequent steps were conducted without any user interaction. […] Finally the sum of pixel (reflecting area of the thyroid gland and intensity of fluorescence) was calculated for the labeled area and used as a proxy of fluorescence intensity (see Fig 1 for an overview of the workflow). For each replicate the sum was of pixels was normalized by setting controls to the value of one. For data of individual embryos see S4 Table. The KNIME workflow used for image analysis is provided as supplement file (S1 Workflow).
To characterize the potency of the investigated goitrogenic compounds, we calculated EC50 values of tg:mcherry fluorescence using the pixel sum obtained from image analysis. For each replicate the fluorescence intensity was normalized by dividing the mean fluorescence intensity of each concentration with the mean control fluorescence intensity. Concentration-response curves of tgmcherry fluorescence were fitted to the data using the Hill-slope equation (Eq 1) and used to estimate EC50 values.
The parameter Min was set to 1 and the slope (p) and the maximum fluorescence (Max) were estimated.

Data set [2] is described as follows: in vivo. Particulars: zebrafish, in vivo.
The conditions of data set [3]: ref chemspider (http://www.chemspider.com); cited from earlier work.
Data set [4] deals with thyroid hormone levels (T4). Particulars: ref Thienpont et al. [13], cited from earlier work.

The term LC50 denotes the concentration lethal to half of the exposed cells or organisms. Lower therefore signals a more lethal substance. As to `Nc1ccc(Cl)c(Cl)c1` [3,4-DCA, 3,4-dichloroaniline], the “effect on tg:mCherry fluorescence” value in data set [1] (zebrafish, in vivo) is on record as “decreased the fluorescence signal; also recorded: did not induce tg:mCherry fluorescence but led to a concentration dependent reduction in fluorescence”. The LC50 in data set [2] (LC50 (48–120 hpf), mortality, embryos exposed 48–120 hpf) was determined as 29.4 µM; in data set [2] (LC50, mortality after 48 h of exposure, S2 Fig, unit inferred), 319 µM; in data set [2] (LC50, mortality after 72 h of exposure, S2 Fig, unit inferred), 59.4 µM. For the same compound, in data set [3], the “Log D (pH 7.4)” value is reported as 2.6.

As usually defined, the EC50 is the concentration giving half of the maximal effect. On to `[K+].[O-][Cl+3]([O-])([O-])[O-]` [Potassium perchlorate, potassium perchlorate], for which the “Normalised mean pixel sum” value in data set [1] (0.13 µM, replicate 2) stood at 0.90; in data set [1] (0.493827 µM, replicate 1), 1.06; in data set [1] (1.91 µM, replicate 2) it was 1.30; in data set [1] (7.40741 µM, replicate 1), 0.86; in data set [1] (29 µM, replicate 2), 1.75; in data set [1] (111.111 µM, replicate 1), 1.38. In addition, the “Normalised mean pixel sum” value is 1.97 in data set [1] (430 µM, replicate 2); 2.55 in data set [1] (1666.67 µM, replicate 1); 2.16 in data set [1] (6455 µM, replicate 2). Also, the Slope in data set [1] (Hill slope of tg:mCherry concentration-response curve) is listed as 0.69. Besides, in data set [1] (concentration at which a 20% increase of tg:mCherry fluorescence was observed), the “BMD 20” value is 37.6 µM. Besides, the EC50 in data set [1] (read-out: EC50 (tg:mCherry induction), exposure 48–120 hpf, Hill-slope model) is 137 µM; in data set [4] (read-out: EC50 T4 reduction, reduction of thyroid hormone levels (immunostaining)), 2.5 µM. In data set [1] (thyroid disruption index = LC50/EC50 tg:mCherry induction), this compound came in with a TDI of 241. In addition, in data set [4] (thyroid disruption index based on T4 reduction), the “TDI (T4)” value is 6030.
